# Experimental data reported in patent US5736565A, “Therapeutic compounds suitable for the treatment of diseases connected with glutathione deficiency, process for their preparation, and pharmaceutical compositions containing same” (Prospa B.V., priority 1992, dated 1998).
# “Also recorded” adds a separate entry of the source. Peptide text beside a SMILES is read from it.
# Columns and labels:
# hepatic GSH = test: Test No. 1: protection from ethanol acute administration, hepatic GSH content; type: in vivo, male albino Wistar rats; parameters: GSH Content: unit not given beside the values; conditions: for GSH Content: liver, ethanol 3 g/kg i.p.
# Description: Protection from ethanol acute administration […] Male albino Wistar rats weighing between 180 and 230 g were used. All animals were fasted for 24 hours prior to administration of isotonic solution, ethanol or ethanol combined with the test substances. As concerns the test substances, rats were intraperitoneally (i.p.) injected with compound of formula I (R=CH3) at doses of 10, 30, and 50 mg/kg and, for purposes of comparison, with the single constituents of compound (I) (R=CH3), […] (O-PRO) and L-cysteine (CIS), both at a 50 mg/kg dose. One hour after administration of the test substance, ethanol was injected i.p. at the dose of 3 g/kg. Thirty minutes later, the animals were sacrificed by decapitation and their liver was excised. […] Orwar et al., J. Chromatrogr., 556, 39-55 (1991).
# [1] = system: serum antibodies versus ram erythrocytes; test: Immunization tests versus ram erythrocytes in rat immunodepressed by cyclophosphamide (CTX); type: in vivo, Sprague-Dawley rats; conditions: for serum antibodies level (agglutination, Days from immunization): 600 mg/kg i.p. + CTX
# Description: (§1) Sprague-Dawley rats (Charles River, Calco (CO)), aged 10 weeks (young adults) and 24 months (old), were stabled under standard conditions (24°±1° C., 12 h light/dark cycle, free access to food and water). Handlings were made in such a way as to avoid stressful stimuli.
# (§2) The animals were stabled in groups of 6 per cage and treated for 2 weeks (15 days) with a PSC daily dose of 600 mg/kg by intraperitoneal route (i.p.).
# Immunization tests versus ram erythrocytes in Sprague-Dawley rat immunodepressed by cyclophosphamide (CTX)
# 0.3 Milliliters of ram erythrocytes (3%) in 0.9% sodium chloride solution were injected to Sprague-Dawley rats, both young (aged 10 weeks, weighing 150-200 g) and old (aged 24 months). A second injection was made on the 21st day after the first one. The rats were treated with PSC (600 mg/kg i.p.). Treatment started 3 days before immunization and continued until the 40th day of experiment. Cyclophosphamide (CTX) (150 mg/kg/die) was injected i.p. on the 3rd, 4th, and 5th day after immunization with erythrocytes.
# The animals were subdivided (6 animals each group) into the following experimental groups:
# 1) Non-immunized controls (CTRL);
# 2) Immunized controls (CTRL);
# 4) Immunized +CTX+PSC (600 mg/kg i.p.).
# The determination of serum antibodies levels was carried out by agglutination reaction: the serum in 0.9% sodium chloride solution was diluted from 1:2 to 1:1024 and ram erythrocytes at a concentration of 5×10^8 /ml were added. The determination of antibodies was carried out 2 hrs after incubation at 37° C. Each sample was assayed twice (Tables 11 and 12).
# [2] = system: murine fibrosarcoma cells (WEHI 164 clone 13); test: Transplantable neoplasms: murine fibrosarcoma tumoral mass growth in BALB/c mice; type: in vivo
# Description: Male adult BALB/c mice weighing 20 g were stabled under standard conditions (24°±1° C., 12 h light/dark cycle, free access to food and water). Handlings were made in such a way as to avoid stressful stimuli.
# All animals, subdivided into groups of 6, were treated 4 weeks with a PSC dose (600 mg/kg). After a 2 week treatment, the mice were inoculated intramuscularly (i.m.) with murine fibrosarcoma WEHI 164 clone 13 cells or Lewis lung carcinoma in an amount of 1×10^5 cells. Treatment was continued two weeks after tumour inoculation. The mice were sacrificed and the tumoral mass growth and the development of metastases, if any, were evaluated.
# peripheral lymphocytes = test: Blastization with concavaline A (ConA) of peripheral lymphocytes of PSC-treated rats; type: in vivo, Sprague-Dawley rats
# Description: as §1, §2
# Once the treatment with PSC previously described in the paragraph "Animals" was completed, the animals, both young and old, were sacrificed by decapitation and the blood collected in heparin-treated tubes. The blood samples were stratified on Ficoll-Paque gradient and centrifuged at 2500 rpm for 15 min. The lymphocytic cellular fraction was taken by suction and washed three times with a Lphysiological solution (0.9% NaCl). At the end of the treatment, the cells were resuspended in culture medium RPMI 1640 containing 10% FBS, counted (1×10^5 cells/0.1 ml/well) and incubated for 48 hrs at 37° C., in a 5% carbon dioxide environment. At the incubation end, mitogens concavaline A (ConA) and phytohaemagglutinin (PHA) were added to the cultures at a concentration of 1 μg/ml in a volume of 0.1 ml. Eighteen hours later, tritiated thymidine (0.01 ml) was added to the cultures, subsequently incubated for 3 hrs. At the incubation end, cells were sucked by cell harvester and the filters were placed in scintillation vials with addition of 5 ml of scintillating solution. Radioactivity (dpm) was measured 2 min. using a β-counter.
# The results obtained on ConA- or PHA-treated groups (controls), on PSC-treated groups (600 mg/kg), and on groups that had not been treated either with ConA or PSC are compared in Tables 14 and 15.
# [3] = 600 mg/kg, analogous for ConA and PHA
smiles,measurement,setting,value
"CC(=O)SC[C@H](NC(=O)[C@@H]1CCC(=O)N1)C(=O)O [PSC, 2-(S)-(2-pyrrolidone-5-(S)-carbonyl amido)-3-acetylmercapto propionic acid] (HELM PEPTIDE1{[Glp].C}|PEPTIDE2{[ac]}$PEPTIDE1,PEPTIDE2,2:R3-1:R2$$$V2.0)",hepatic glutathione formation (in words),hepatic GSH; ethanol-treated rats,enhances hepatic glutathione formation nearly to physiological levels
same,GSH Content,hepatic GSH; test substance 10 mg/kg i.p.,3.6 ± 0.3
same,GSH Content,hepatic GSH; test substance 30 mg/kg i.p.,4.3 ± 0.6
same,GSH Content,hepatic GSH; test substance 50 mg/kg,5.8 ± 0.4
same,restoring immunological functionality (in words),[1]; CTX-immunodepressed old rat,effective in restoring a correct immunological functionality
same,antibodies levels (in words),"[1]; intraperitoneal, young and old rats",causes a considerable increase in antibodies levels both in young (Table 11) and old (Table 12) rats
same,"serum antibodies level (agglutination, Days from immunization)","[1]; old rats, day 12",2
same,"serum antibodies level (agglutination, Days from immunization)","[1]; old rats, day 20",8
same,"serum antibodies level (agglutination, Days from immunization)","[1]; old rats, day 29",32
same,"serum antibodies level (agglutination, Days from immunization)","[1]; old rats, day 40",64
same,"serum antibodies level (agglutination, Days from immunization)","[1]; young rats, day 12",2
same,"serum antibodies level (agglutination, Days from immunization)","[1]; young rats, day 20",4
same,"serum antibodies level (agglutination, Days from immunization)","[1]; young rats, day 29",20
same,"serum antibodies level (agglutination, Days from immunization)","[1]; young rats, day 40",20
same,"tumoural growth, fibrosarcoma (in words)",[2]; 600 mg/kg,prevented tumoural growth; also recorded: significantly slows down the growth of fibrosarcomatous tumours in the rat
same,"Tumoral mass diameter, 15th day","[2]; 600 mg/kg i.p., 30 days' treatment",0.6 ± 0.03 cm
same,"blastization (tritiated thymidine incorporation), Young",peripheral lymphocytes; 600 mg/kg i.p. 15 days + ConA,714 ± 23 DPM × 100
same,"blastization (tritiated thymidine incorporation), Elderly","peripheral lymphocytes; 600 mg/kg i.p. 15 days + ConA, *P < 0.05",512 ± 27 DPM × 100
same,"incorporation index of tritiated thymidine, young rats (in words)",peripheral lymphocytes; [3],did not differ from controls
same,"index of thymidine incorporation, old rats (in words)",peripheral lymphocytes; [3],showed an increased index of thymidine incorporation in respect of controls
